Data as given in PubChem BioAssay (NCI).
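Each compound was tested at five concentrations against cells in 96-well plates for 48 hours. TGI marks complete inhibition of growth.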 Where a SMILES comes first, the peptide text is derived from it. The star is where a group is joined. Boc = CC(C)(C)OC(=O)*; OtBu = CC(C)(C)O*

Tests used:
Assay in all cases: NCI anticancer screen, dose series, 48 h
M14 melanoma = system: M14 melanoma
UO-31 renal = system: UO-31 renal
RPMI-8226 leukemia = system: RPMI-8226 leukemia
HCC-2998 colon = system: HCC-2998 colon
SK-MEL-2 melanoma = system: SK-MEL-2 melanoma
LOX IMVI melanoma = system: LOX IMVI melanoma
ACHN renal = system: ACHN renal
NCI-H460 lung = system: NCI-H460 lung
T-47D breast = system: T-47D breast
COLO 205 colon = system: COLO 205 colon
MDA-N = system: MDA-N

| SMILES | TGI (M14 melanoma) | TGI (UO-31 renal) | TGI (RPMI-8226 leukemia) | TGI (HCC-2998 colon) | TGI (SK-MEL-2 melanoma) | TGI (LOX IMVI melanoma) | TGI (ACHN renal) | TGI (NCI-H460 lung) | TGI (T-47D breast) | TGI (COLO 205 colon) | TGI (MDA-N) |
| --- | --- | --- | --- | --- | --- | --- | --- | --- | --- | --- | --- |
| O=C(O)CN1CCN2CCOCCN(CC1)CCN(CC(=O)O)CC2 | > 100 µM | > 100 µM | > 100 µM | > 100 µM | > 100 µM | > 100 µM | > 100 µM | > 100 µM | > 100 µM | > 100 µM | – |
| Cn1c2ccccc2n2c3ccccc3c3nnc(N)c-3c12 | > 100 µM | > 100 µM | > 100 µM | > 100 µM | > 79.5 µM | > 100 µM | > 100 µM | > 100 µM | 12.9 µM | > 100 µM | – |
| COc1ccc(C2OC2C(=O)C23CC4CC(CC(C4)C2)C3)cc1 (stereo unspecified) | > 100 µM | > 100 µM | > 100 µM | > 100 µM | – | > 100 µM | > 100 µM | > 100 µM | > 100 µM | – | > 100 µM |
| COC(=O)[C@@H](N1C(=O)c2ccccc2C1=O)C1(C)CC(Cl)=NO1 (stereo partly specified) | > 100 µM | > 100 µM | > 100 µM | > 100 µM | > 100 µM | – | > 100 µM | > 100 µM | > 100 µM | > 100 µM | > 100 µM |
| Nc1ccc(Oc2ccc(C3(c4ccc(Oc5ccc(N)c(O)c5)cc4)C4CC5CC(C4)CC3C5)cc2)cc1O | 3.18 µM | 3.82 µM | 5.64 µM | 3.01 µM | 3.88 µM | – | 3.18 µM | – | > 77.2 µM | 1.72 µM | 4.75 µM |
| Cc1nnc(NS(=O)(=O)c2ccc(N=Nc3c(O)c(C(=O)O)cc4ccccc34)cc2)s1 | > 100 µM | > 100 µM | > 100 µM | > 100 µM | > 100 µM | – | > 100 µM | > 100 µM | > 100 µM | > 100 µM | > 100 µM |
| CCc1c(N=[N+]=[N-])c2ccccc2oc1=O | > 100 µM | > 100 µM | > 100 µM | > 100 µM | – | > 100 µM | > 100 µM | > 100 µM | > 100 µM | > 100 µM | > 100 µM |
| FC(F)(F)c1ccc2c(c1)nc(Cc1ccc(Cl)cc1)n2CC1CCCN2CCCCC12 (stereo unspecified) | 4.91 µM | 0.0985 µM | – | 10.5 µM | 26.4 µM | 7.85 µM | 23.6 µM | 20.7 µM | 19.6 µM | 16 µM | 13.7 µM |
| COc1cc(OC)cc(Oc2nc3ccc(C(F)(F)F)cc3nc2-c2ccccc2)c1 | – | > 100 µM | > 100 µM | > 100 µM | – | > 100 µM | > 100 µM | > 100 µM | > 100 µM | > 100 µM | > 100 µM |
| O=C1C/C(=C\c2ccccc2)C(=O)c2ccccc2N1 | 44.1 µM | – | – | 37.9 µM | 60.6 µM | 40.8 µM | 58.4 µM | 62 µM | 78.1 µM | 34.8 µM | 47.8 µM |
| O=c1[nH]c2ccccc2c(=O)c2cc3ccccc3cc12 | > 100 µM | > 100 µM | – | > 100 µM | > 100 µM | > 100 µM | > 100 µM | 53.6 µM | > 100 µM | > 100 µM | > 100 µM |
| CC(C)OP(=O)(OC(C)C)C(=Nc1ccc(N=C(NNc2ccc([N+](=O)[O-])cc2)P(=O)(OC(C)C)OC(C)C)cc1)NNc1ccc([N+](=O)[O-])cc1 | > 100 µM | > 100 µM | > 100 µM | – | > 100 µM | > 100 µM | > 100 µM | – | – | > 100 µM | – |
| CSc1ccc(/C=C2\N=C(c3ccccc3)N(NC(=O)c3c(Cl)c(Cl)c(Cl)c(Cl)c3-c3nc4ccccc4[nH]3)C2=O)cc1 | > 100 µM | > 100 µM | – | 39.3 µM | > 100 µM | > 100 µM | > 100 µM | 28 µM | 25.6 µM | 95.9 µM | > 100 µM |
| CCCCCCCC(=O)N1C2CC3CCC2(CS1(=O)=O)C3(C)C (stereo unspecified) | 41 µM | 52.4 µM | 41.5 µM | 51.2 µM | – | – | > 100 µM | > 100 µM | – | 41.2 µM | 72 µM |
| NC(C(=O)O)C(O)c1cnc[nH]1 (stereo unspecified) | > 100 µM | – | > 100 µM | – | > 100 µM | > 100 µM | > 100 µM | > 100 µM | > 100 µM | > 100 µM | > 100 µM |
| COC(=O)c1c(O)ccc2c1c1c(n2CCc2ccccc2)C(=O)c2ccccc2C1 | 55.2 µM | 49.7 µM | 34 µM | – | 40.5 µM | > 100 µM | – | 48.3 µM | – | 32.5 µM | > 100 µM |
| CCOC(=O)/C(C#N)=c1/s/c(=C(\O)N/N=C/c2ccc(OC)cc2)c(=N)n1-c1ccccc1 | – | > 100 µM | > 100 µM | > 100 µM | – | – | > 100 µM | > 100 µM | – | > 100 µM | – |
| CC(=O)OC(C(=O)NNC(=O)OC(C)(C)C)c1ccccc1 (stereo unspecified) | > 100 µM | > 100 µM | > 100 µM | > 100 µM | > 100 µM | – | > 100 µM | > 100 µM | > 100 µM | > 100 µM | > 100 µM |
| NC(Cc1c2ccccc2cc2ccccc12)C(=O)O (stereo unspecified) | > 100 µM | > 100 µM | – | > 100 µM | > 100 µM | > 100 µM | > 100 µM | > 100 µM | > 100 µM | > 100 µM | – |
| O=C(O)c1ccc2nc(-c3ccccn3)c(-c3ccccn3)nc2c1 | > 100 µM | > 100 µM | > 100 µM | > 100 µM | > 100 µM | > 100 µM | > 100 µM | > 100 µM | > 100 µM | > 100 µM | – |
| Nc1cc2c(C3OC(CO)C(O)C3O)[nH]nc2c(=S)[nH]1 (stereo unspecified) | > 100 µM | > 100 µM | > 100 µM | > 100 µM | > 100 µM | – | > 100 µM | > 100 µM | – | > 100 µM | – |
| CC(C)(C)OC(=O)CC(NC(=O)OC(C)(C)C)C(=O)NC(Cc1ccccc1)C(N)=O (stereo unspecified) (Boc-Asp(OtBu)-Phe-NH2; configuration not given here) | > 100 µM | > 100 µM | > 100 µM | – | > 100 µM | > 100 µM | > 100 µM | > 100 µM | > 100 µM | > 100 µM | > 100 µM |
